Experimental data as given in PubChem BioAssay (NCI).
Values joined by “and” are separate entries in the source; they are usually repeats but may differ in a detail not shown here. Equal entries are not always repeated.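 Where inhibition never reached the appropriate level, the endpoint shown equals the highest concentration tested. Otherwise, values were interpolated linearly from a five-concentration, 48-hour dose response in 96-well plates. Here, GI50 denotes the concentration required for 50% inhibition of growth. At the TGI there is no net growth.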

Legend:
Assay in all cases: NCI anticancer screen, dose series, 48 h
[1] = test system: COLO 205 colon
[2] = test system: HCT-15 colon
[3] = test system: HT29 colon
[4] = test system: IGROV1 ovarian
[5] = test system: M14 melanoma
[6] = test system: NCI-H226 lung
[7] = test system: OVCAR-4 ovarian
[8] = test system: OVCAR-5 ovarian
[9] = test system: RXF 393 renal
[10] = test system: SNB-75 CNS

Structure (SMILES) | TGI [1] | TGI [2] [µM] | TGI [3] | TGI [4] | TGI [5] | TGI [6] | TGI [7] | TGI [8] | TGI [9] [µM] | TGI [10] | GI50 [1] [µM] | GI50 [2] [µM] | GI50 [3] [µM] | GI50 [4] [µM] | GI50 [5] [µM] | GI50 [6] [µM] | GI50 [7] [µM] | GI50 [8] [µM] | GI50 [9] [µM] | GI50 [10] [µM]
FC(F)(F)c1nc(-c2ccccc2)oc1Sc1oc(-c2ccccc2)nc1C(F)(F)F | > 100 µM | > 100 | > 100 µM | > 100 µM | > 100 µM | > 100 µM | 90.2 µM | > 100 µM | > 100 | > 100 µM |  |  |  |  |  |  |  |  |  | 
CC(CN)[C@@H]1CC[C@]2(CO)CC[C@]3(C)[C@H](CC[C@@H]4[C@@]5(C)CCC(N)C(C)(C)[C@@H]5CC[C@]43C)[C@@H]12 (stereo not given in full) | 3.68 µM | 3.49 | 3.03 µM | 3.78 µM | 3.76 µM | 4.04 µM | 3.16 µM | 3.58 µM | 3.07 | 2.82 µM | 1.91 | 1.69 | 1.57 | 1.86 | 1.9 | 1.95 | 1.61 | 1.85 | 1.55 | 1.41
Nc1c2ccccc2nc2ccccc12 (tested in a mixture with another compound) | 2.08 µM | 10.4 | 3.48 µM | 7.89 µM | 3.92 µM | 3.03 µM | 6.9 µM | 13.4 µM | 3.27 | 8.44 µM | 0.753 | 2.03 | 1.08 | 2.72 | 1.87 | 1.17 | 1.84 | 2.96 | 1.28 | 3.18
Nc1nc(-c2ccccc2)cc(-c2ccc(Cl)cc2)c1-c1nc2ccccc2o1 | 37.3 µM | 23.2 | 31.7 µM | 28.5 µM | 35.4 µM | 29.2 µM | 28 µM | 42.1 µM | 44.6 | 26.3 µM | 21.4 | 10.4 | 12 | 12.9 | 14.5 | 14.5 | 13.5 | 21.8 | 21.5 | 12.9
COc1cc(N2CCC(N3CCN(C)CC3)CC2)ccc1Nc1ncc(Cl)c(Nc2ccccc2S(=O)(=O)C(C)C)n1 | 0.469 µM | 11.5 | 0.617 µM | 9.2 µM | 2.51 µM | 2.14 µM | 2.17 µM | 5.48 µM | 1.86 | 2.17 µM | 0.114 | 1.94 | 0.0612 | 1.39 | 1.16 | 0.461 | 0.341 | 0.659 | 0.6 | 0.919
CC(C)(C)c1cc(-c2nc3c(F)c(F)c(F)c(F)c3[nH]2)cc(C(C)(C)C)c1O | > 100 µM | > 100 | > 100 µM | > 100 µM | > 100 µM | > 100 µM | > 100 µM | > 100 µM | > 100 | > 100 µM | > 100 | > 100 | > 100 | > 100 | > 100 | > 100 | > 100 | > 100 | > 100 | > 100
CC(=O)[O][Bi]([c]1ccccc1)[c]1ccccc1 | 7.27 µM | 4.06 | 32.3 µM | 6.77 µM | 24.5 µM | 37.5 µM | 27 µM | 26.3 µM | 7.14 | 30.2 µM | 2.84 | 1.92 | 18.1 | 2.48 | 11.4 | 18.6 | 13.7 | 11.8 | 2.45 | 16.4
CCCCCCCCCCCCCCCCCC[N+](C)(C)Cc1ccc(C[N+](C)(C)CCCCCCCCCCCCCCCCCC)cc1 | > 100 µM | > 100 | 38.6 µM | > 100 µM | 49 µM | 41.5 µM | > 100 µM | 96.7 µM | 6.67 | 26 µM |  |  |  |  |  |  |  |  |  | 
CCN(CC)CC[n+]1cc2cc(OC)c(OC)cc2c2ccc3cc4c(cc3c21)OCO4 | 2.48 µM | 4.51 | 1.36 µM | 2.67 µM | 2.31 µM | 3.24 µM | 4.16 µM | 3.17 µM | 2.45 | 2.56 µM | 0.418 | 1.68 | 0.321 | 0.649 | 0.654 | 1.35 | 0.775 | 1.01 | 0.783 | 0.64
Cc1ccc(NC(=O)CC2C(=O)Nc3ccccc3S2=O)c(C)c1 (stereo not given) | 60.5 µM | 25.4 | 20.4 µM | 42.1 µM | 46.7 µM | 51.6 µM | 41.6 µM | > 100 µM | 24.1 | 30 µM |  |  |  |  |  |  |  |  |  | 
CC1=Nc2ccccc2C12C(c1ccccc1)C(c1ccccc1)C(=O)N1c3ccccc3CC12 (stereo not given) | > 100 µM | > 100 | > 100 µM | > 100 µM | > 100 µM | > 100 µM | > 100 µM | > 100 µM | > 100 | > 100 µM |  |  |  |  |  |  |  |  |  | 
Cc1ccc2c(c1)C=CC(C#N)N2C(=O)Oc1ccccc1 (stereo not given) | 70.1 µM | 57.2 | 35.3 µM | > 100 µM | > 100 µM | 99.9 µM | 70.7 µM | > 100 µM | > 100 | > 100 µM |  |  |  |  |  |  |  |  |  | 
CC[CH2][Sn]([CH2]CC)([O]C(=O)Cc1ccc(F)cc1)[O][Sn]([CH2]CC)([CH2]CC)[O]C(=O)Cc1ccc(F)cc1 | 0.857 µM | 0.658 | 2.02 µM | 2.04 µM | 0.622 µM | 0.813 µM | 1.23 µM | 2.84 µM | 0.126 | 1.43 µM | 0.266 | 0.218 | 0.728 | 0.718 | 0.237 | 0.243 | 0.276 | 1.44 | 0.0286 | 0.27
Cn1c(=O)c2[nH]c(CCCCc3nc4c([nH]3)c(=O)n(C)c(=S)n4C)nc2n(C)c1=S | > 100 µM | > 100 | > 100 µM | > 100 µM | > 100 µM | > 100 µM | > 100 µM | > 100 µM | > 100 | 53.1 µM |  |  |  |  |  |  |  |  |  | 
Cc1ccc(N2C(=O)C(Cl)=C(Cl)C2=O)cc1 | 30.7 µM | 33.3 | 33.3 µM | 43.4 µM | 36.7 µM | > 100 µM | 34.4 µM | 35.9 µM | 25.4 | 48.5 µM |  |  |  |  |  |  |  |  |  | 
CCOCCOC[C@H]1CCCN(c2ccnc3sc(C(N)=O)c(N)c23)C1 | > 100 µM | > 100 | > 100 µM | > 100 µM | > 100 µM | > 100 µM | > 100 µM | > 100 µM | > 100 | > 100 µM | 59.7 | > 100 | > 100 | 35 | 63.1 | > 100 | 13.5 | > 100 | 47.8 | 63.9
Clc1ccc2c(NCCNc3nc(N4CCCC4)nc4ccccc34)ccnc2c1 | 1.94 µM | 2.92 | 1.39 µM | 4.6 µM | 2.76 µM | 4.06 µM | 3.58 µM | 6.38 µM | 2.63 | 3 µM | 0.147 | 0.254 | 0.0943 | 1.65 | 0.935 | 1.95 | 1.28 | 2.15 | 1.23 | 1.37
O=C(NCCCCCCNC(=O)OCc1ccc2c(Cl)cc(Cl)c(O)c2n1)OCc1ccc2c(Cl)cc(Cl)c(O)c2n1 | 2.19 µM | 1.02 | 2.23 µM | 1.78 µM | 2.32 µM | 2.54 µM | 2.04 µM | 3.01 µM | 1.57 | 2.08 µM | 0.589 | 0.317 | 0.565 | 0.57 | 0.893 | 1.07 | 0.707 | 1.5 | 0.478 | 0.567
O=[N+]([O-])c1cc2c(c([N+](=O)[O-])c1)Nc1ccccc1O2 | 27.8 µM | > 100 | 66.8 µM | > 100 µM | > 100 µM | > 100 µM | 68.3 µM | 62.2 µM | 46.3 | > 100 µM | 10.5 | 5.49 | 6.41 | 7.58 | 11.5 | 5.97 | 5.99 | 14.9 | 7.35 | 29.8
Oc1c(I)cc(I)cc1CN(Cc1ccccn1)Cc1ccccn1 | 15.1 µM | > 40.6 | 18 µM | 12.6 µM | 9.86 µM | 7.48 µM | > 44.1 µM | 53.5 µM | 9.76 | 7.67 µM | 2 | 0.453 | 3.93 | 1.12 | 0.766 | 1.16 | 0.658 | 2.14 | 1.86 | 0.419
CCCCCCCCCCCCC(CCCCCCCCCCCC)OP(=O)(O)O | > 100 µM | > 100 | > 100 µM | > 100 µM | > 100 µM | > 100 µM | > 100 µM | > 100 µM | > 100 | > 100 µM |  |  |  |  |  |  |  |  |  | 
Nc1nc(-c2ccc(Cl)cc2)cc(-c2ccccc2)c1-c1nc2ccccc2o1 | 35.9 µM | 28.3 | 39.1 µM | 49 µM | 26.2 µM | 31.3 µM | 28 µM | 54.7 µM | 16.9 | 24.5 µM | 19.1 | 6.15 | 5.99 | 12.5 | 10.4 | 15.1 | 11.5 | 19.8 | 3.69 | 10.5
C=C(C)[C@@H]1CC[C@]2(C(N)=O)CC[C@]3(C)[C@H](CC[C@@H]4[C@@]5(C)C/C(=C/c6cccnc6)[C@H](O)C(C)(C)[C@@H]5CC[C@]43C)[C@@H]12 | 12.4 µM | > 100 | > 100 µM | > 100 µM | > 100 µM | > 100 µM | > 100 µM | > 100 µM | 52.5 | > 100 µM | 3.1 | 2.6 | 3.68 | 3.85 | 4.86 | 4.98 | 3.31 | 3.61 | 3.61 | 4.29
Cn1sc2ccccc2c1=S | 26.2 µM | 17.3 | 23.3 µM | 31.7 µM | 22.2 µM | 53.4 µM | 19.4 µM | 37.4 µM | 7.95 | 17.4 µM |  |  |  |  |  |  |  |  |  | 
COc1cnc2c(c1)C(=O)c1c-2n(CCCNC(C)C)c(=O)c2cc([N+](=O)[O-])ccc12 | 0.225 µM | 0.402 | 1.01 µM | 1.43 µM | 0.135 µM | 0.798 µM | 0.807 µM | 0.624 µM | 1.38 | 0.48 µM | 0.0293 | 0.124 | 0.0364 | 0.115 | 0.0347 | 0.0651 | 0.179 | 0.155 | 0.0562 | 0.0696
CN1CCN(CC(=O)N2c3cccc4cccc(c34)N(C(=O)CN3CCN(C)CC3)C2c2cn(-c3ccccc3)nc2-c2cccc([N+](=O)[O-])c2)CC1 | 3.82 µM | 4.06 | 5.59 µM | 3.71 µM | 3.34 µM | 4.8 µM | 5.24 µM | 7.53 µM | 3.09 | 2.71 µM | 1.84 | 1.98 | 2.19 | 1.73 | 1.75 | 1.83 | 2.25 | 2.46 | 1.58 | 1.32
CCCCCC/C=C1\CCC(CN(C)C)C1=O (stereo not given) | 8.4 µM | 6.61 | 14.5 µM | 26.5 µM | 16.7 µM | 36.5 µM | 45.3 µM | 30.8 µM | 9.8 | 23.8 µM |  |  |  |  |  |  |  |  |  | 
CCCCCCNCCCNc1c2ccccc2nc2cccc([N+](=O)[O-])c12 | 0.0149 µM and 0.0415 µM | > 100 | 0.0268 µM and 0.124 µM | 0.0713 µM and 0.186 µM | 0.0247 µM and 0.0205 µM | 0.274 µM and 0.148 µM | 0.0419 µM and 0.0486 µM | 0.194 µM and 0.151 µM | 0.0312 | 0.181 µM and 0.237 µM |  |  |  | 0.0252 |  | 0.0228 | 0.0115 | 0.0207 |  | 0.065
